PubChem BioAssay AID1918938 (Molecular Pharmacology Branch, DTP, NCI, 2023)

System: 556581-035-R-J1-PDC complex spheroid viability
Assay: Anticancer human tumor 556581-035-R-J1-PDC patient-derived ovarian carcinoma cell line growth inhibition
Details: for IC50: curve of first compound; for viability, T/C: stronger effect = lower value
Procedure, shortened: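 Multicellular complex spheroids of tumor cells with human endothelial cells (HUVEC) and mesenchymal stem cells; the LSD1 inhibitor iadademstat was combined with standard-of-care or investigational agents. Top concentration at or near clinical Cmax, half-log dilutions; final DMSO ≤0.25%.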

[1] = second compound 0.1 µM, first compound 0.0316 µM
[2] = second compound 0.1 µM, first compound 0.1 µM
[3] = second compound 0.1 µM, first compound 0.316 µM
[4] = second compound 0.1 µM, first compound 1 µM
[5] = second compound 0.1 µM, first compound 3.16 µM
[6] = second compound 0.1 µM, first compound 10 µM
[7] = second compound 0.316 µM, first compound 0.0316 µM
[8] = second compound 0.316 µM, first compound 0.1 µM
[9] = second compound 0.316 µM, first compound 0.316 µM
[10] = second compound 0.316 µM, first compound 1 µM
[11] = second compound 0.316 µM, first compound 3.16 µM
[12] = second compound 0.316 µM, first compound 10 µM
[13] = second compound 1 µM, first compound 0.0316 µM
[14] = second compound 1 µM, first compound 0.1 µM
[15] = second compound 1 µM, first compound 0.316 µM
[16] = second compound 1 µM, first compound 1 µM
[17] = second compound 1 µM, first compound 3.16 µM
[18] = second compound 1 µM, first compound 10 µM
[19] = second compound 3.16 µM, first compound 0.0316 µM
[20] = second compound 3.16 µM, first compound 0.1 µM
[21] = second compound 3.16 µM, first compound 0.316 µM
[22] = second compound 3.16 µM, first compound 1 µM
[23] = second compound 3.16 µM, first compound 3.16 µM
[24] = second compound 3.16 µM, first compound 10 µM
[25] = second compound 10 µM, first compound 0.0316 µM
[26] = second compound 10 µM, first compound 0.1 µM
[27] = second compound 10 µM, first compound 0.316 µM
[28] = second compound 10 µM, first compound 1 µM
[29] = second compound 10 µM, first compound 3.16 µM
[30] = second compound 10 µM, first compound 10 µM
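Note: spheroids exposed to agents for seven days.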
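Throughout, for viability, T/C: 100% = DMSO vehicle control wells.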

| Structure (SMILES) | IC50 (second compound 0.1 µM) [nM] | IC50 (second compound 0.316 µM) [nM] | IC50 (second compound 1 µM) [nM] | IC50 (second compound 3.16 µM) [nM] | IC50 (second compound 10 µM) [nM] | viability, T/C [1] [%] | viability, T/C [2] [%] | viability, T/C [3] [%] | viability, T/C [4] [%] | viability, T/C [5] [%] | viability, T/C [6] [%] | viability, T/C [7] [%] | viability, T/C [8] [%] | viability, T/C [9] [%] | viability, T/C [10] [%] | viability, T/C [11] [%] | viability, T/C [12] [%] | viability, T/C [13] [%] | viability, T/C [14] [%] | viability, T/C [15] [%] | further results |
| --- | --- | --- | --- | --- | --- | --- | --- | --- | --- | --- | --- | --- | --- | --- | --- | --- | --- | --- | --- | --- | --- |
| CC(C)c1c(-c2ccccc2)nc2c(C#N)c[nH]n2c1=O + NC1CC1c1ccc(-c2cccc(O)c2)cc1 | > 10000 | > 10000 | > 10000 | > 10000 | > 10000 | 100 | 103 | 95.8 | 89.3 | 88.8 | 64 | 90.6 | 82.5 | 86.4 | 85.2 | 73.6 | 79.9 | 96.4 | 101 | 79.7 | viability, T/C [16]: 76.5%; viability, T/C [17]: 69.8%; viability, T/C [18]: 60.2%; viability, T/C [19]: 85.6%; viability, T/C [20]: 82.5%; viability, T/C [21]: 84.8%; viability, T/C [22]: 86.7%; viability, T/C [23]: 77.9%; viability, T/C [24]: 69.3%; viability, T/C [25]: 92.6%; viability, T/C [26]: 91.2%; viability, T/C [27]: 89.4%; viability, T/C [28]: 75.4%; viability, T/C [29]: 66.1%; viability, T/C [30]: 59.6% |
| COc1ccc([C@@H](O)c2cc(-c3ncnc4cc(N5CCOCC5)ccc34)c(F)cc2Cl)nn1 + NC1CC1c1ccc(-c2cccc(O)c2)cc1 | 853 | 932 | 1000 | 621 | 1050 | 102 | 87 | 68.2 | 46.3 | 34.5 | 26.9 | 85.2 | 75.9 | 62.7 | 48.4 | 37.9 | 27.3 | 82.5 | 79.8 | 55.1 | viability, T/C [16]: 52.6%; viability, T/C [17]: 38.7%; viability, T/C [18]: 25.3%; viability, T/C [19]: 82.8%; viability, T/C [20]: 84.2%; viability, T/C [21]: 64.5%; viability, T/C [22]: 39.7%; viability, T/C [23]: 34%; viability, T/C [24]: 30.1%; viability, T/C [25]: 97.4%; viability, T/C [26]: 79.6%; viability, T/C [27]: 64.8%; viability, T/C [28]: 48.5%; viability, T/C [29]: 41.3%; viability, T/C [30]: 24.4% |
